Measurements published in US20150080580A1, “THIOUREA DERIVATIVES AS a-CHYMOTRYPSIN INHIBITORS” (priority 2013, published 2015).

Legend:
α-Chymotrypsin [1] = molecular target: T1, α-Chymotrypsin (Bos taurus, UniProt P00766); experiment: α-Chymotrypsin inhibition assay (SPpNA substrate, absorbance at 410 nm); format: biochemical, bovine; settings: for IC50: α-chymotrypsin, substrate SPpNA 0.4 mM, pH 7.6, 30° C., n = 3
T1 construct: purchased Sigma-Aldrich (USA) C4129; host or cells: bovine pancreas
Experimental: (§1) α-Chymotrypsin (bovine pancreas, C4129) and N-succinyl-L-phenylalanine-p-nitroaniline (S2628) were purchased from Sigma-Aldrich (USA). Chymostatin (152845) from MP Biomedicals, LLC, USA, Tris(hydroxymethyl)aminomethane from Scharlau Chemie Barcelona, Spain and all other reagents were obtained from E. Merck and were of analytical grade. All other solvents and reagents were of analytical grade and used directly without purification.
This was performed in 50 mM Tris-HCl buffer pH 7.6 with 10 mM CaCl2. α-Chymotrypsin (12 units/mL prepared in 50 mM Tris-HCl buffer) with the different concentration of test compounds prepared in DMSO. It was then incubated at 30° C. for 25 min. The reaction was started by the addition of the substrate, N-succinyl-L-phenylalanine-p-nitroanilide (final concentration of 0.4 mM, prepared in the buffer as mentioned above). The change in absorbance due to released p-nitroaniline was continuously monitored at 410 nm (Choudhary et al., 2011). All the experiments were in a final volume of 200 μL in triplicate, and data was taken using a micro-plate reader (SpectraMax M2, Molecular Devices, Calif., USA).
The results were processed by using SoftMax Pro 4.8 then analyzed by MS Excel software. The % of inhibition based upon initial velocity and calculated as: […]
IC50 (Inhibition of enzymatic hydrolysis of the substrate SPpNA by 50%) value was calculated using EZ-Fit software (Perellela Scientific, Inc., Amherst, Mars, USA).

α-Chymotrypsin [2] = molecular target: T1, α-Chymotrypsin; experiment: α-Chymotrypsin inhibition kinetic study (Lineweaver-Burk, Dixon, Hanes-Woolf plots); format: biochemical, bovine; settings: for Type of inhibition: from Lineweaver-Burk, Dixon and Hanes-Woolf plots; for Ki: substrate SPpNA 0.4-3.2 mM, n = 3, read-out: Ki ± SEM
Source text: as §1
The change in concentration of the substrate/product (rate of reaction) was measured as optical density per minute (OD/min). This OD/min was obtained by incorporating different concentrations of compounds over substrate (SPpNA) concentrations between 0.4 mM and 3.2 mM in micro-plate reader. Reciprocal of OD/min against the reciprocal of the substrate concentration, defined as Lineweaver-Burk plot (and its secondary plot; slope vs compound concentration); the Dixon plot (and its secondary plot; slope vs reciprocal of compound concentration) and then Hanes-Woolf plot were plotted (Lineweaver et al., 1934; Dixon, 1953; Segel, 1993) Graphs were plotted using GraFit 4 (Erithacus Software Limited, Surrey, UK) and GraphPad Prism 5 (GraphPad Software, California, USA). The types of inhibition were determined by the graphical views of Dixon plots, Lineweaver-Burk plots and their secondary plots as well as Hanes-Woolf plot. The Ki values, obtained directly from the software, also were cross-checked and tallied in these graphs. Final concentration of DMSO was maintained 5.5%.

[3] = Cell proliferation inhibition (cytotoxicity) MTT assay for 3T3 cell line; format: cell-based, Mouse; settings: 3T3 mouse fibroblast cells; 3T3 mouse fibroblasts, MTT, 72 hrs, n = 3; read-out: 3T3 cell-line GI50 ± SEM
Experimental: (§2) It was evaluated by using the MTT (3-[4,5-dimethylthiazole-2-yl]-2,5-diphenyl-tetrazolium bromide) assay (Mosmann, 1983). The 3T3 cell-lines (Mouse Fibroblasts) were cultured in Dulbecco's Modified Eagle's Medium, which was later supplemented with 5% of bovine serum, 100 IU/mL of penicillin, and 100 μg/mL of streptomycin, in 5% CO2 incubator at 37° C. Exponentially growing cell, 1×10^4 cells/well incorporated into each well of 96-well plates. Then, fresh the medium containing different concentrations of compounds were loaded in each well after 24 hours. Again, after 72 hrs, fresh the medium containing 0.5 mg/mL MTT were loaded in each well, and incubated further for 4 hrs. Subsequently, the media containing MTT was replaced by 100 μL of DMSO for 15 min, and then the absorbance was taken at 570 nm.

3T3 cell line = experiment: as above; format: cell-based, Mouse
Experimental: as §2

| Compound | IC50 (α-Chymotrypsin [1]) [µM] | α-chymotrypsin inhibition (in words) (α-Chymotrypsin [1]) | Type of inhibition (α-Chymotrypsin [2]) | Ki (α-Chymotrypsin [2]) [µM] | GI50 at 72 h [3] [µM] | growth inhibition for 3T3 cell lines (in words) (3T3 cell line) |
| --- | --- | --- | --- | --- | --- | --- |
| S=C(Nc1cccc(Cl)c1)Nc1cccnc1Cl [Compound 26, 1-(3-Chlorophenyl)-3-(2-chloropyridin-3-yl)thiourea] | > 500 |  |  |  |  |  |
| S=C(Nc1cccc(Cl)c1)Nc1ccccc1Cl [Compound 23, 1-(2-Chlorophenyl)-3-(3-chlorophenyl) thiourea] | > 500 | failed to show any inhibition |  |  |  |  |
| S=C(Nc1cccc(Cl)c1)Nc1ccc(Cl)cc1Cl [Compound 8, 1-(3-Chlorophenyl)-3-(2,4-dichlorophenyl) thiourea] | 42.4 ± 0.3 |  | Mixed | 31.8 ± 3.4 | 21.4 ± 0.1 | showed growth inhibition |
| S=C(Nc1ccccc1)Nc1cccnc1Cl [Compound 33, 1-(2-Chloropyridin-3-yl)-3-phenylthiourea] | > 500 |  |  |  |  |  |
| Cc1ccc(Cl)cc1NC(=S)Nc1cccc(Cl)c1 [Compound 7, 1-(5-Chloro-2-methylphenyl)-3-(3-chlorophenyl) thiourea] | 40.4 ± 1.2 |  | Competitive | 25.8 ± 0.9 | 24.6 ± 0.2 | showed growth inhibition |
| S=C(Nc1ccc(Cl)cc1)Nc1cccc(Cl)c1 [Compound 1, 1-(3-Chlorophenyl)-3-(4-chlorophenyl) thiourea] | 11.6 |  | mixed-type | 8.6 ± 0.8 | > 30 |  |
| Cc1cccnc1NC(=S)Nc1cccc(Cl)c1 [Compound 25, 1-(3-Chlorophenyl)-3-(3-methylpyridin-2-yl)thiourea] | > 500 |  |  |  |  |  |
| S=C(Nc1ccccc1)Nc1ccccn1 [Compound 28, 1-Phenyl-3-(pyridin-2-yl) thiourea] | > 500 |  |  |  |  |  |
| S=C(Nc1ccccc1)Nc1ccncc1 [Compound 30, 1-Phenyl-3-(pyridin-4-yl) thiourea] | > 500 |  |  |  |  |  |
| S=C(Nc1ccccc1)Nc1cccnc1 [Compound 29, 1-Phenyl-3-(pyridin-3-yl) thiourea] | > 500 | inactive |  |  |  |  |
| Cc1ccc(NC(=S)Nc2ccccc2)nc1C [Compound 32, 1-(5,6-Dimethylpyridin-2-yl)-3-phenylthiourea] | > 500 |  |  |  |  |  |
| S=C(NCc1ccncc1)Nc1cccc(Cl)c1 [Compound 18, 1-(3-Chlorophenyl)-3-(pyridin-4-ylmethyl)thiourea] | 186 ± 12.8 |  | Competitive | 148 ± 4.8 | > 30 |  |
| S=C(Nc1cccc(Cl)c1)Nc1c(Cl)cccc1Cl [Compound 16, 1-(3-Chlorophenyl)-3-(2,6-dichlorophenyl) thiourea] | 247.3 ± 1.7 |  | Competitive | 210 ± 11.8 | > 30 |  |
| Cc1cccc(C)c1NC(=S)Nc1cccc(Cl)c1 [Compound 24, 1-(3-Chlorophenyl)-3-(2,6-dimethylphenyl) thiourea] | > 500 |  |  |  |  |  |
| S=C(Nc1cccc(Cl)c1)Nc1ccc(Cl)c(Cl)c1 [Compound 2, 1-(3-Chlorophenyl)-3-(3,4-dichlorophenyl) thiourea] | 18.8 ± 0.2 |  | non-competitive-type | 15.5 ± 0.4 | > 30 |  |
| Fc1ccc(NC(=S)Nc2cccc(Cl)c2)cc1 [Compound 12, 1-(3-Chlorophenyl)-3-(4-fluorophenyl) thiourea] | 68.4 ± 8.5 |  | Competitive | 62.5 ± 2.5 | > 30 |  |
| COc1ccc(OC)c(NC(=S)Nc2ccccc2)c1 [Compound 27, 1-(2,5-Dimethoxyphenyl)-3-phenylthiourea] | > 500 |  |  |  |  |  |

| Compound | IC50 (α-Chymotrypsin [1]) [µM] | α-chymotrypsin inhibition (in words) (α-Chymotrypsin [1]) | Type of inhibition (α-Chymotrypsin [2]) | Ki (α-Chymotrypsin [2]) [µM] | GI50 at 72 h [3] [µM] | growth inhibition for 3T3 cell lines (in words) (3T3 cell line) |
| --- | --- | --- | --- | --- | --- | --- |
| S=C(Nc1cccc(Cl)c1)Nc1cccc(Cl)c1Cl [Compound 13, 1-(3-chlorophenyl)-3-(2,3-dichlorophenyl) thiourea] | 107 ± 9.1 |  | Competitive | 87.3 ± 6.7 | > 30 |  |
| Fc1ccc(NC(=S)Nc2ccccc2)c(F)c1 [Compound 22, 1-(2,4-Difluorophenyl)-3-phenylthiourea] | 193 ± 1 |  | Competitive | 142 ± 5 | > 30 |  |
| S=C(NCc1ccncc1)Nc1ccccc1 [Compound 35, 1-Phenyl-3-(pyridin-4-ylmethyl)thiourea] | > 500 |  |  |  |  |  |
| COc1cccc(NC(=S)Nc2cccc(Cl)c2)c1 [Compound 4, 1-(3-Chlorophenyl)-3-(3-methoxyphenyl) thiourea] | 25.4 ± 0.2 |  | Mixed | 21.2 ± 1.5 | > 30 |  |
| Cc1ccccc1NC(=S)Nc1cccc(Cl)c1 [Compound 17, 1-(3-Chlorophenyl)-3-o-tolylthiourea] | 387 ± 13.1 |  | Competitive | 329 ± 11.6 | > 30 |  |
| S=C(Nc1ccccc1)Nc1cccc(Br)c1 [Compound 21, 1-(3-Bromophenyl)-3-phenylthiourea] | 79.2 ± 0.6 |  | Mixed | 60.8 ± 7.4 | > 30 |  |
| S=C(Nc1cccnc1)Nc1cccc(Cl)c1 [Compound 19, 1-(3-Chlorophenyl)-3-(pyridin-3-yl) thiourea] | 199 |  | Competitive | 166 ± 5.9 | > 30 |  |
| Fc1ccc(NC(=S)Nc2cccc(Cl)c2)cc1F [Compound 11, 1-(3-Chlorophenyl)-3-(3,4-difluorophenyl) thiourea] | 66.9 ± 4.9 |  | Competitive | 49.8 ± 2.6 | > 30 |  |
| Cc1ccc(C)c(NC(=S)Nc2cccc(Cl)c2)c1 [Compound 14, 1-(3-Chlorophenyl)-3-(2,5-dimethylphenyl) thiourea] | 151 ± 8.8 |  | Competitive | 107 ± 5.5 | > 30 |  |
| Cc1cccc(NC(=S)Nc2cccc(Cl)c2)c1 [Compound 10, 1-(3-Chlorophenyl)-3-m-tolylthiourea] | 48.5 ± 1.7 |  | Mixed | 31.6 ± 1.8 | > 30 |  |
| COc1ccc(NC(=S)Nc2cccc(Cl)c2)cc1 [Compound 6, 1-(3-Chlorophenyl)-3-(4-methoxyphenyl) thiourea] | 34.3 ± 2.8 |  | Mixed | 25.6 ± 0.9 | > 30 |  |
| Cc1ccc(NC(=S)Nc2cccc(Cl)c2)c(C)c1 [Compound 15, 1-(3-Chlorophenyl)-3-(2,4-dimethylphenyl) thiourea] | 192 ± 9.2 |  | Non- Competitive | 173 ± 7.9 | > 30 |  |
| S=C(NCc1cccnc1)Nc1ccccc1 [Compound 34, 1-Phenyl-3-(pyridin-3-ylmethyl)thiourea] | > 500 |  |  |  |  |  |
| S=C(Nc1ccccc1)Nc1ccc(Br)cc1 [Compound 20, 1-(4-Bromophenyl)-3-phenylthiourea] | 45.7 ± 2.9 |  | competitive-type | 21.1 ± 2.5 | > 30 |  |
| Cc1cccnc1NC(=S)Nc1ccccc1 [Compound 31, 1-(3-Methylpyridin-2-yl)-3-phenylthiourea] | > 500 |  |  |  |  |  |
| S=C(Nc1cccc(Cl)c1)Nc1cccc(Cl)c1 [Compound 3, 1,3-Bis(3-chlorophenyl) thiourea] | 23.3 |  | Mixed | 15.9 ± 1.5 | > 30 |  |
